Patent publication US20130213885A1, “FORWARD OSMOSIS SYSTEM AND PROCESS” (KING ABDULLAH UNIVERSITY OF SCIENCE AND TECHNOLOGY, priority 2012, published 2013)

Experiment: Laboratory-scale forward osmosis performance test (water flux, salt flux)
Details: AL-DS
Method: Prior to use, CTA1 and CTA2 membranes were soaked in water for 30 minutes, and other membranes were soaked in isopropanol for 30 minutes, followed by a soaking in deionized (DI) water for 10 hours.
The specially designed cross-flow membrane cell (301) has a channel (302, 303) on each side of the membrane (304), which allows the feed solution (305) and draw solution (306) to flow through separately. Each channel has dimensions of 2.8 mm, 50 mm, and 100 mm for channel height, length, and width, respectively. Co-current flow was used with a flow rate in each channel that was controlled by a peristaltic pump (307, 308) and a flow meter (309, 310). The cross-flow rates for the feed and draw solution were both maintained at […]. A heat exchanger (311) was used to maintain the feed solution (305) and draw solution (306) at 23° C. A stirrer (318) on the feed side was also used. A weighing scale (312) connected to a computer (313) was used to monitor the weight of water permeating through the membrane from the feed to the draw side, from which the water flux was calculated. A conductivity meter (314) in the feed side was used to determine the salt concentration and thus the salt flux. A draw side conductivity meter (315) also exists to take measurements on the draw side. The laboratory scale unit (300) also comprises a feed-side thermistor (316) and a draw-side thermistor (317).

In the case of `[Cl-].[Na+]` [NaCl, sodium chloride], the “water flux relative to sodium lignin sulfonate as draw solute” value (CTA1 and CTA2 membranes, feed deionized water, different osmotic pressures) is reported as “doubles”, the “salt flux relative to sodium lignin sulfonate as draw solute” value (CTA1 membrane, feed deionized water) is reported as “about four times” and the “salt flux relative to sodium lignin sulfonate as draw solute” value (CTA2 membrane, feed deionized water) is reported as “about the same range”. For the same compound, the “water flux, relatively stable stage” value (RO1 membrane, draw solute at 84 bar, feed DI, after first 10 minutes) was “around 4 LMH”.
